From paper PMC7012010, “Synthesis and biological evaluation of 2-styrylquinolines as antitumour agents and EGFR kinase inhibitors: molecular docking study” (Journal of Enzyme Inhibition and Medicinal Chemistry, 2017)
Converted amounts (≈) assume the structure as drawn.

Key:
[1] = test system: HCT116; assay: MTT antitumour (cytotoxicity) assay, HCT116; assay type: cell-based; settings: Homo sapiens, HCT-116, HCT116 cell line, 50% inhibition of tumour cell proliferation, read-out: In vitro cytotoxicity IC50
Method: (§1) The designed compounds were evaluated for their in vitro antitumour effect using the standard MTT method against two human tumour cell lines, namely, HepG2 and HCT116[45–48]. The quantitative evaluation of the cytotoxicity was performed using tetrazolium salt MTT (3-(4,5-dimethyl-2-thiazolyl)-2,5-diphenyl-2 H-tetrazolium bromide) assay. The cytotoxic activity was expressed as the concentration of the compound that caused 50% growth inhibition (IC50, mean ± SEM) compared with the growth of untreated cells.

[2] = test system: HepG2; assay: MTT antitumour (cytotoxicity) assay, HepG2; assay type: cell-based; settings: Homo sapiens, HepG2, HepG2 cell line, 50% inhibition of tumour cell proliferation, read-out: In vitro cytotoxicity IC50
Method: as §1

[3] = target: EGFR kinase (Homo sapiens, UniProt P00533); assay: ELISA-based EGFR-TK kinase inhibition assay; assay type: biochemical; settings: n = 3, read-out: Enzymatic IC50 toward EGFR kinase
Chain of EGFR kinase (P00533 25-1210): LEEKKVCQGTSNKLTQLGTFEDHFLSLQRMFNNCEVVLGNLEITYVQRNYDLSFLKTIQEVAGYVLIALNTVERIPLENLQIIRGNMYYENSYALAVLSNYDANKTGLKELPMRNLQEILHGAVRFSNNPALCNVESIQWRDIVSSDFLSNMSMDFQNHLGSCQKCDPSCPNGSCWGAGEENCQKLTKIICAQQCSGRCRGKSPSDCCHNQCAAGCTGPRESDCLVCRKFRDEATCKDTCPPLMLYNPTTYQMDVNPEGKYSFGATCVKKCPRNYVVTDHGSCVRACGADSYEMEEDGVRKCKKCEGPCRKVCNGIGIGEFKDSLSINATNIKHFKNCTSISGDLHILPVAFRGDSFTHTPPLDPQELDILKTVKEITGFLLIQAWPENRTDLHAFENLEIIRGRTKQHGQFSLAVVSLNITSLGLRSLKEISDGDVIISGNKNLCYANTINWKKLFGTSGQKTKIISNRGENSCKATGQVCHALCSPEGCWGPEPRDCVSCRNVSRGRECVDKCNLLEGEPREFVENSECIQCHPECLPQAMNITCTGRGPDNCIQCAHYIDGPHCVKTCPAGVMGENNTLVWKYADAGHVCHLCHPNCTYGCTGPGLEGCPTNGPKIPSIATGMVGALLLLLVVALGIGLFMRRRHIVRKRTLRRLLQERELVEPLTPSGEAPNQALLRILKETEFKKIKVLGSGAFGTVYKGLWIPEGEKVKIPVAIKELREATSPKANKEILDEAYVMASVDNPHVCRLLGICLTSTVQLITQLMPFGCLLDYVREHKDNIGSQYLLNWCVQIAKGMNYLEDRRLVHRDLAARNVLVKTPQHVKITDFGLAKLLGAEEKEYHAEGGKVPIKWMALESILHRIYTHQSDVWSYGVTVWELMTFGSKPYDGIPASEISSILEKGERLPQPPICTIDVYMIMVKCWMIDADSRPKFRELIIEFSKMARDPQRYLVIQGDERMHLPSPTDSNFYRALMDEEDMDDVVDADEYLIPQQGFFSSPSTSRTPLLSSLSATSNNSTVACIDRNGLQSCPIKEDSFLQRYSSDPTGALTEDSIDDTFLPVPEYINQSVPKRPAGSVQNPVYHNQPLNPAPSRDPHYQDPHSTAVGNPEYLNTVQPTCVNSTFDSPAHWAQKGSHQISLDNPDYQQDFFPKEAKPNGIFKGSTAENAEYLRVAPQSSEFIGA
Method: EGFR kinase activity was determined via enzyme-linked immunosorbent assay (ELISA) in 96-well plates. The EGFR kinase activity for each compound were expressed as IC50 values. Data were represented as mean ± SD from three independent experiments, and differences between groups were considered statistically significant at p < .05.
The mechanism of antitumour activity of the target compounds was studied using ELISA-based EGFR-TK assay.

Row | IC50 [3] | melting point | SMILES | IC50 [1] | IC50 [2]
1 |  | 232 °C | CN(C)c1ccc(C=Cc2cc(C(=O)NNc3ccccc3)c3cc(Br)ccc3n2)cc1 [Compound 7a, 6-Bromo-2-(4-(dimethylamino)styryl)-N'-phenylquinoline-4-carbohydrazide] | 49.7 ± 3 µg/mL (≈ 102 µM) | 46.1 ± 2.81 µg/mL (≈ 94.6 µM)
2 |  | 228 °C | Cc1ccc2nc(C=Cc3ccc(N(C)C)cc3)cc(C(=O)NNc3ccccc3)c2c1 [Compound 7b, 2-(4-(Dimethylamino)styryl)-6-methyl-N'-phenylquinoline-4-carbohydrazide] | 61.4 ± 3.76 µg/mL (≈ 145 µM) | 72.8 ± 3.82 µg/mL (≈ 172 µM)
3 | 16 µM | > 300 °C | CCOC(=O)C(C#N)C(=O)c1cc(C=Cc2ccc(N(C)C)cc2)nc2ccc(Br)cc12 (centres unmarked) [Compound 8a, Ethyl 3-(6-bromo-2-(4-(dimethylamino)styryl)quinolin-4-yl)-2-cyano-3-oxopropanoate] | 16 ± 0.88 µg/mL (≈ 32.5 µM) | 26.2 ± 1.79 µg/mL (≈ 53.2 µM)
4 |  | > 300 °C | CCOC(=O)C(C#N)C(=O)c1cc(C=Cc2ccc(N(C)C)cc2)nc2ccc(C)cc12 (centres unmarked) [Compound 8b, Ethyl 2-cyano-3-(2-(4-(dimethylamino)styryl)-6-methylquinolin-4-yl)-3-oxopropanoate] | 52.6 ± 3.92 µg/mL (≈ 123 µM) | 43.7 ± 2.66 µg/mL (≈ 102 µM)
5 |  | > 300 °C | CC(=O)C(C(C)=O)C(=O)c1cc(C=Cc2ccc(N(C)C)cc2)nc2ccc(Br)cc12 [Compound 9a, 3-(6-Bromo-2-(4-(dimethylamino)styryl)quinoline-4-carbonyl)pentane-2,4-dione] | 57.3 ± 3.07 µg/mL (≈ 120 µM) | 65.4 ± 3.18 µg/mL (≈ 136 µM)
6 |  | > 300 °C | CC(=O)C(C(C)=O)C(=O)c1cc(C=Cc2ccc(N(C)C)cc2)nc2ccc(C)cc12 [Compound 9b, 3-(2-(4-(Dimethylamino)styryl)-6-methylquinoline-4-carbonyl)pentane-2,4-dione] | 93.1 ± 5.64 µg/mL (≈ 225 µM) | > 100 µg/mL

More lines, now with the values behind:

Row | SMILES | IC50 [3] | melting point | IC50 [1] | IC50 [2]
7 | CN(C)C/C=C/C(=O)Nc1cc2c(Nc3ccc(F)c(Cl)c3)ncnc2cc1O[C@H]1CCOC1 [Afatinib, afatinib, reference compound] |  |  | 11.4 ± 1.26 µg/mL (≈ 23.5 µM) | 5.4 ± 0.25 µg/mL (≈ 11.1 µM)
8 | CN(C)c1ccc(/C=C/c2cc(C(=O)O)c3cc(Br)ccc3n2)cc1 [Compound 3a] | 2.23 µM |  | 9 ± 0.35 µg/mL (≈ 22.7 µM) | 9.8 ± 0.2 µg/mL (≈ 24.7 µM)
9 | Cc1ccc2nc(C=Cc3ccc(N(C)C)cc3)cc(C(=O)O)c2c1 [Compound 3b, 2–(4-(Dimethylamino)styryl)-6-methylquinoline-4-carboxylic acid] | 8.01 µM | 275 °C | 14.8 ± 0.89 µg/mL (≈ 44.5 µM) | 17.2 ± 1.04 µg/mL (≈ 51.7 µM)
10 | CN(C)c1ccc(C=Cc2cc(-c3nnc(N)s3)c3cc(Br)ccc3n2)cc1 [Compound 4a, 5-(6-Bromo-2–(4-(dimethylamino)styryl)quinolin-4-yl)-1,3,4-thiadiazol-2-amine] | 8.78 µM | 223 °C | 14.2 ± 0.67 µg/mL (≈ 31.4 µM) | 9 ± 0.19 µg/mL (≈ 19.9 µM)
11 | Cc1ccc2nc(C=Cc3ccc(N(C)C)cc3)cc(-c3nnc(N)s3)c2c1 [Compound 4b, 5-(2-(4-(Dimethylamino)styryl)-6-methylquinolin-4-yl)-1,3,4-thiadiazol-2-amine] | 1.11 µM | 226 °C | 8.8 ± 0.26 µg/mL (≈ 22.7 µM) | 7.7 ± 0.15 µg/mL (≈ 19.9 µM)
12 | O=c1[nH]cc(F)c(=O)[nH]1 [Compound 5-FU, 5-fluorouracil, reference compound] |  |  | 5.3 ± 0.32 µg/mL (≈ 40.7 µM) | 7.9 ± 0.17 µg/mL (≈ 60.7 µM)
13 | CN(C)c1ccc(C=Cc2cc(C(=O)Oc3ccc(C=O)cc3)c3cc(Br)ccc3n2)cc1 [Compound 6a, 4-Formylphenyl 6-bromo-2-(4-(dimethylamino)styryl)quinoline-4-carboxylate] |  | 242 °C | 96.6 ± 5.4 µg/mL (≈ 193 µM) | 82.9 ± 4.64 µg/mL (≈ 165 µM)
14 | Cc1ccc2nc(C=Cc3ccc(N(C)C)cc3)cc(C(=O)Oc3ccc(C=O)cc3)c2c1 [Compound 6b, 4-Formylphenyl 2-(4-(dimethylamino)styryl)-6-methylquinoline-4-carboxylate] |  | 248 °C | > 100 µg/mL | > 100 µg/mL
